Measured values taken from PubChem BioAssay (NCI).
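Growth conditions: 96-well plates. Treatment: test compound, 48 hours, 5 concentrations. Analysis: linear interpolation between bracketing concentrations; unreached endpoints set to highest concentration. TGI: total growth inhibition.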

Legend:
Test in all cases: NCI-60 cell line screen, 48 h
HOP-62 NSCLC = system: HOP-62 NSCLC
HT29 colon = system: HT29 colon
DMS 114 small cell lung = system: DMS 114 small cell lung
UACC-257 melanoma = system: UACC-257 melanoma
LOX IMVI melanoma = system: LOX IMVI melanoma
SN12C renal = system: SN12C renal
SF-539 CNS = system: SF-539 CNS
HCT-116 colon = system: HCT-116 colon
A549 NSCLC = system: A549 NSCLC
IGROV1 ovarian = system: IGROV1 ovarian
M19-MEL melanoma = system: M19-MEL melanoma
SNB-78 CNS = system: SNB-78 CNS
CCRF-CEM leukemia = system: CCRF-CEM leukemia
UACC-62 melanoma = system: UACC-62 melanoma
NCI-H460 lung = system: NCI-H460 lung
SNB-75 CNS = system: SNB-75 CNS
OVCAR-3 ovarian = system: OVCAR-3 ovarian
SR leukemia = system: SR leukemia
SF-295 CNS = system: SF-295 CNS
RPMI-8226 leukemia = system: RPMI-8226 leukemia
RXF 393 renal = system: RXF 393 renal
M14 melanoma = system: M14 melanoma
ACHN renal = system: ACHN renal
SK-OV-3 ovarian = system: SK-OV-3 ovarian
HCC-2998 colon = system: HCC-2998 colon
NCI-H226 lung = system: NCI-H226 lung
TK-10 renal = system: TK-10 renal
SK-MEL-5 melanoma = system: SK-MEL-5 melanoma
EKVX NSCLC = system: EKVX NSCLC
HOP-92 NSCLC = system: HOP-92 NSCLC
SK-MEL-2 melanoma = system: SK-MEL-2 melanoma
HL-60(TB) leukemia = system: HL-60(TB) leukemia
SNB-19 CNS = system: SNB-19 CNS
LXFL 529 NSCLC = system: LXFL 529 NSCLC
DMS 273 small cell lung = system: DMS 273 small cell lung
OVCAR-8 ovarian = system: OVCAR-8 ovarian
OVCAR-4 ovarian = system: OVCAR-4 ovarian
HCT-15 colon = system: HCT-15 colon
XF 498 CNS = system: XF 498 CNS
CAKI-1 renal = system: CAKI-1 renal
786-0 renal = system: 786-0 renal
UO-31 renal = system: UO-31 renal
NCI-H23 lung = system: NCI-H23 lung
U251 CNS = system: U251 CNS
OVCAR-5 ovarian = system: OVCAR-5 ovarian
KM12 colon = system: KM12 colon
DLD-1 colon = system: DLD-1 colon
HOP-18 NSCLC = system: HOP-18 NSCLC
K-562 leukemia = system: K-562 leukemia
SW-620 colon = system: SW-620 colon
SF-268 CNS = system: SF-268 CNS
COLO 205 colon = system: COLO 205 colon
SK-MEL-28 melanoma = system: SK-MEL-28 melanoma
KM20L2 colon = system: KM20L2 colon
MOLT-4 leukemia = system: MOLT-4 leukemia
MALME-3M melanoma = system: MALME-3M melanoma
NCI-H522 lung = system: NCI-H522 lung

FC(F)(F)C1(Cl)C(Cl)(c2ccccc2)C1(Cl)c1ccccc1 (configuration not stated)
TGI (HOP-62 NSCLC): 30 µM
TGI (HT29 colon): 28.2 µM
TGI (DMS 114 small cell lung): 29.2 µM
TGI (UACC-257 melanoma): 28.1 µM
TGI (LOX IMVI melanoma): 26.8 µM
TGI (SN12C renal): 28.6 µM
TGI (SF-539 CNS): 30.4 µM
TGI (HCT-116 colon): 24.8 µM
TGI (A549 NSCLC): 28 µM
TGI (IGROV1 ovarian): 26 µM
TGI (M19-MEL melanoma): 29 µM
TGI (SNB-78 CNS): 33.2 µM
TGI (CCRF-CEM leukemia): 55 µM
TGI (UACC-62 melanoma): 29.7 µM
TGI (NCI-H460 lung): 30.5 µM
TGI (SNB-75 CNS): 29.9 µM
TGI (OVCAR-3 ovarian): 28.1 µM
TGI (SR leukemia): 25.8 µM
TGI (SF-295 CNS): 29.4 µM
TGI (RPMI-8226 leukemia): > 100 µM
TGI (RXF 393 renal): 27.7 µM
TGI (M14 melanoma): 30.2 µM
TGI (ACHN renal): 29.5 µM
TGI (SK-OV-3 ovarian): 54.7 µM
TGI (HCC-2998 colon): 31.1 µM
TGI (NCI-H226 lung): 27.4 µM
TGI (TK-10 renal): 32.8 µM
TGI (SK-MEL-5 melanoma): 26.9 µM
TGI (EKVX NSCLC): 30.1 µM
TGI (HOP-92 NSCLC): 24.8 µM
TGI (SK-MEL-2 melanoma): 29.1 µM
TGI (HL-60(TB) leukemia): > 100 µM
TGI (SNB-19 CNS): 32.5 µM
TGI (LXFL 529 NSCLC): 29.9 µM
TGI (DMS 273 small cell lung): 28.2 µM
TGI (OVCAR-8 ovarian): 32.2 µM
TGI (OVCAR-4 ovarian): 27.3 µM
TGI (HCT-15 colon): 26.8 µM
TGI (XF 498 CNS): 29.3 µM
TGI (CAKI-1 renal): 25.6 µM
TGI (786-0 renal): 29.5 µM
TGI (UO-31 renal): 28.1 µM
TGI (NCI-H23 lung): 27.5 µM
TGI (U251 CNS): 28.3 µM
TGI (OVCAR-5 ovarian): 30 µM
TGI (KM12 colon): 29 µM
TGI (DLD-1 colon): 29.1 µM
TGI (HOP-18 NSCLC): 23.1 µM
TGI (K-562 leukemia): > 100 µM
TGI (SW-620 colon): 29.1 µM
TGI (SF-268 CNS): 31.7 µM
TGI (COLO 205 colon): 33.4 µM
TGI (SK-MEL-28 melanoma): 28.2 µM
TGI (KM20L2 colon): 26.9 µM
TGI (MOLT-4 leukemia): 35.4 µM

Cn1cc(NC(=O)[C@H]2CCC(N)=N2)cc1C(=O)NCCC(=N)N
TGI (HOP-62 NSCLC): > 100 µM
TGI (HT29 colon): > 100 µM
TGI (DMS 114 small cell lung): > 100 µM
TGI (UACC-257 melanoma): > 100 µM
TGI (LOX IMVI melanoma): > 100 µM
TGI (SN12C renal): > 100 µM
TGI (SF-539 CNS): > 100 µM
TGI (HCT-116 colon): > 100 µM
TGI (A549 NSCLC): > 100 µM
TGI (IGROV1 ovarian): > 100 µM
TGI (SNB-78 CNS): > 100 µM
TGI (CCRF-CEM leukemia): > 100 µM
TGI (UACC-62 melanoma): > 100 µM
TGI (NCI-H460 lung): > 100 µM
TGI (SNB-75 CNS): > 100 µM
TGI (OVCAR-3 ovarian): > 100 µM
TGI (SR leukemia): > 100 µM
TGI (SF-295 CNS): > 100 µM
TGI (RPMI-8226 leukemia): > 100 µM
TGI (RXF 393 renal): > 100 µM
TGI (M14 melanoma): > 100 µM
TGI (ACHN renal): > 100 µM
TGI (SK-OV-3 ovarian): > 100 µM
TGI (HCC-2998 colon): > 100 µM
TGI (NCI-H226 lung): > 100 µM
TGI (TK-10 renal): > 100 µM
TGI (EKVX NSCLC): > 100 µM
TGI (HOP-92 NSCLC): > 100 µM
TGI (SK-MEL-2 melanoma): > 100 µM
TGI (HL-60(TB) leukemia): > 100 µM
TGI (SNB-19 CNS): > 100 µM
TGI (LXFL 529 NSCLC): > 100 µM
TGI (DMS 273 small cell lung): > 100 µM
TGI (OVCAR-8 ovarian): > 100 µM
TGI (XF 498 CNS): > 100 µM
TGI (786-0 renal): > 100 µM
TGI (UO-31 renal): > 100 µM
TGI (NCI-H23 lung): > 100 µM
TGI (MALME-3M melanoma): > 100 µM
TGI (NCI-H522 lung): > 100 µM
TGI (U251 CNS): > 100 µM
TGI (KM12 colon): > 100 µM
TGI (DLD-1 colon): > 100 µM
TGI (HOP-18 NSCLC): > 100 µM
TGI (K-562 leukemia): > 100 µM
TGI (SW-620 colon): > 100 µM
TGI (SF-268 CNS): > 100 µM
TGI (COLO 205 colon): > 100 µM
TGI (SK-MEL-28 melanoma): > 100 µM
TGI (KM20L2 colon): > 100 µM
TGI (MOLT-4 leukemia): > 100 µM

O=C(CC1(O)C(=O)Nc2c(Cl)cc(Cl)cc21)c1ccco1 (configuration not stated)
TGI (HOP-62 NSCLC): > 100 µM
TGI (HT29 colon): > 100 µM
TGI (DMS 114 small cell lung): 60 µM
TGI (UACC-257 melanoma): > 100 µM
TGI (LOX IMVI melanoma): > 100 µM
TGI (SN12C renal): > 100 µM
TGI (A549 NSCLC): > 100 µM
TGI (SNB-78 CNS): 99.5 µM
TGI (CCRF-CEM leukemia): 68.4 µM
TGI (NCI-H460 lung): > 100 µM
TGI (SNB-75 CNS): > 100 µM
TGI (OVCAR-3 ovarian): 57 µM
TGI (SF-295 CNS): > 100 µM
TGI (RPMI-8226 leukemia): 60.4 µM
TGI (RXF 393 renal): > 100 µM
TGI (M14 melanoma): > 100 µM
TGI (ACHN renal): > 100 µM
TGI (SK-OV-3 ovarian): > 100 µM
TGI (HCC-2998 colon): > 100 µM
TGI (NCI-H226 lung): 71.4 µM
TGI (TK-10 renal): > 100 µM
TGI (SK-MEL-5 melanoma): > 100 µM
TGI (EKVX NSCLC): > 100 µM
TGI (HOP-92 NSCLC): > 100 µM
TGI (SK-MEL-2 melanoma): > 100 µM
TGI (HL-60(TB) leukemia): 47.5 µM
TGI (SNB-19 CNS): > 100 µM
TGI (LXFL 529 NSCLC): > 100 µM
TGI (DMS 273 small cell lung): > 100 µM
TGI (OVCAR-8 ovarian): > 100 µM
TGI (OVCAR-4 ovarian): 40.8 µM
TGI (HCT-15 colon): > 100 µM
TGI (XF 498 CNS): 67.8 µM
TGI (CAKI-1 renal): > 100 µM
TGI (786-0 renal): > 100 µM
TGI (UO-31 renal): > 100 µM
TGI (NCI-H23 lung): > 100 µM
TGI (MALME-3M melanoma): > 100 µM
TGI (NCI-H522 lung): > 100 µM
TGI (U251 CNS): > 100 µM
TGI (OVCAR-5 ovarian): > 100 µM
TGI (KM12 colon): > 100 µM
TGI (DLD-1 colon): > 100 µM
TGI (HOP-18 NSCLC): > 100 µM
TGI (K-562 leukemia): > 100 µM
TGI (SW-620 colon): > 100 µM
TGI (SF-268 CNS): > 100 µM
TGI (COLO 205 colon): > 100 µM
TGI (SK-MEL-28 melanoma): > 100 µM
TGI (KM20L2 colon): > 100 µM
TGI (MOLT-4 leukemia): 59.1 µM
